Test results from patent US12616713B2, “Methods for enhancing vascular density” (priority 2016, dated 2026).

How the values were obtained:
HAECs = experiment: Spheroid sprouting assay, HAECs; assay type: cell-based, human; settings: VEGF 50 ng/mL
Experimental: ECs spheroids were generated as described previously (Korff and Augustin, 1998, J Cell Biol 143, 1341-1352). ECs (1000 cells per spheroid) were suspended in EGM-2 medium containing 20% methocel (viscosity: 4000 cps, Sigma) and seeded in non-adherent round-bottom 96-well plates (Sigma). Under these conditions all suspended cells contributed to the formation of a single spheroid. The spheroids were harvested after 24 h embedded into collagen gels. Sprouting was initiated by adding C2C12 CM or EBM-2 medium containing VEGF (50 ng/mL). NMN (0.5 mM), NaHS (0.1 mM), DAPT (20 μM, Cayman Chemical) or SU5416 (10 μM, Sigma) were added to the media wherever mentioned. Angiogenic activity was quantified by measuring the sprout length that had grown out of each spheroid analyzing 8-10 spheroids per group.

HUVECs [1] = experiment: Wound scratch assay, HUVECs; assay type: cell-based, human; settings: 6 h
Experimental: ECs were cultured until forming a confluent monolayer and a scratch was made using a 200 μL pipette tip. Then the cells were allowed to migrate+/−NaHS (0.1 mM) and +/−NMN (0.5 mM) in EGM-2 medium for 6 hrs. Images were taken at the same location using a brightfield inverted microscope (Olympus 2467) every 2 h. The area of gap closure was calculated using ImageJ software. In some experiments, HUVECs were transduced with Scr or SIRT1 siRNA and cultured until forming a confluent monolayer. The cells were exposed to H2O2 (150 μM) for 1 h and a scratch was made using a 200 μL pipette tip. Then the cells were allowed to migrate with PBS (vehicle), NaHS (100 μM) and/or NMN (500 μM) in EGM-2 medium for 6 h. Images were taken at the same location using a brightfield inverted microscope (Olympus 2467) every 2 h. The area of gap closure was calculated using ImageJ software.

HUVECs [2] = experiment: Seahorse analysis of oxygen consumption rate; assay type: cell-based, human; settings: NaHS 100 μM, NMN 500 μM
Experimental: Oxygen consumption rates were measured in accordance with manufacturer instructions using Seahorse XF96 analyzer (Seahorse Bioscience). Briefly, 40,000 HUVECs were plated onto XF96 plates and incubated overnight at 37° C./5% CO2. Next day, the media was replaced with XF assay media (DMEM), supplemented with glucose (1 g/L), glutamate (2 mM) and pyruvate (1 mM) and the pH was adjusted to 7.4. NaHS (100 μM) and/or NMN (500 μM) were added at the start of the experiment. Oxygen consumption measurements were made approximately every 8 minutes under basal conditions, and after the addition of oligomycin (1 μM). Experiments were replicated in six wells and averaged for each experimental condition.

SIRT1 = SIRT1 protein levels in HUVECs (Western blot); assay type: cell-based, human; settings: NaHS 0.1 mM and/or NMN 0.5 mM
Experimental: SDS-PAGE and Western blot analysis were performed according to standard procedures and detected with the ECL detection kit (Bio-rad, Australia). For Western blot analysis antibodies directed against SIRT1 (Sigma), SIRT3 (CST), SIRT6 (SantaCruz), eNOS (Cell Signaling Technology or CST), cleaved Notch1 (CST), total OXPHOS cocktail (Abcam), PGC-1α (Millipore), VEGF (Abcam), VEGFR2 (Abcam), phospho-VEGFR2 (Millipore), Actin (Cell Signaling Technology), Tubulin (Sigma), 14-3-3 (Cell Signaling Technology), GAPDH (SantaCruz) were used. Quantification of band intensities by densitometry was carried out using ImageJ software.

NAD^+ = experiment: NAD+ levels in HUVECs; assay type: cell-based, human; settings: increasing doses of NaHS, 24 hrs
Experimental: Levels of NAD^+ and NADH levels were measured in EC and muscle homogenates using commercially available kit (NAD-NADH Glo, Promega) according to manufacturer's instructions. Alternatively, NAD^+ levels in muscle and liver were measured by assay in-house developed method (Uddin et al., 2016, Front Pharmacol 7, 258). In brief, liver and gastrocnemius samples were homogenized in extraction buffer (10 mM Tris-HCl, 0.5% TritonX-100, 10 mM Nicotinamide, pH7.4) and then centrifuged (12,000×g for 5 min at 4° C.), after which an aliquot of supernatant was taken for protein quantification. After phenol:chloroform:isoamylalcohol (25:24:1) and chloroform extractions the supernatant was separated in two aliquots. One was used to measure total NAD. The other aliquot was acidified with HCl, and then neutralized with NaOH on ice to quantify NAD^+. Samples were mixed in a 96-well plate samples were mixed with alcohol dehydrogenase (ADH) at room temperature. Total NADH and NAD^+ were quantified using a Bio-Rad Imark microplate reader.

NAMPT = NAMPT (Homo sapiens, UniProt P43490); settings: in vitro (Wang et al. 2014); cited from earlier work
Chain of NAMPT (P43490 whole entry, species assumed): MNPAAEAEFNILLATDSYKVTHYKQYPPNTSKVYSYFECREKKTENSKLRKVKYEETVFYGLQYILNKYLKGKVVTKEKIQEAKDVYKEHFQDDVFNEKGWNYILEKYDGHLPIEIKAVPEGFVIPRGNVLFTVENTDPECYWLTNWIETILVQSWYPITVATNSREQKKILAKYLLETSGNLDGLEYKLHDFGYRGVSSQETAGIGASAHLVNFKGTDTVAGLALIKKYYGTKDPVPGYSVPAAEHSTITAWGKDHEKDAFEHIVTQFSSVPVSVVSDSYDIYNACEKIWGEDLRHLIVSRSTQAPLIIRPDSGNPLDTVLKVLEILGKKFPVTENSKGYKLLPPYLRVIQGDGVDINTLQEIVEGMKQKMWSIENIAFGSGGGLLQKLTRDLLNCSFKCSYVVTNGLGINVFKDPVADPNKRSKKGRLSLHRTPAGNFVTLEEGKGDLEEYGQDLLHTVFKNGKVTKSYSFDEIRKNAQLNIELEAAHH

CD38 = target: T1, CD38 (Homo sapiens, UniProt P28907); settings: in vitro (Esande et al. 2013); cited from earlier work
T1 sequence (P28907 1-300): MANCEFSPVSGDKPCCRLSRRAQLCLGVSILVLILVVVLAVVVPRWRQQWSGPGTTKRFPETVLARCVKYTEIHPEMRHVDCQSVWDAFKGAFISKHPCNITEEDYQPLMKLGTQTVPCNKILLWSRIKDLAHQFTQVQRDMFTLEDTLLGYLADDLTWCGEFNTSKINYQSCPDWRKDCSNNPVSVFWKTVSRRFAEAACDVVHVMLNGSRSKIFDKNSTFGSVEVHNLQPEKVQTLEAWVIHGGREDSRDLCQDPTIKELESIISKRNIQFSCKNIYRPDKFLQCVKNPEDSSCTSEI

C[C@H](NC(=O)Cc1cc(F)cc(F)c1)C(=O)N[C@H](C(=O)OC(C)(C)C)c1ccccc1 [DAPT, N—[N-(3,5-Difluorophenacetyl)-L-alanyl]-S-phenylglycine t-butyl ester, reference compound]
sprout length of spheroids (HAECs; DAPT 20 μM, NT or SIRT1 siRNA): increased sprout length irrespective of SIRT1 levels

[Na+].[SH-] [NaHS, sodium hydrosulfide]
cell migration in a scratch assay (HUVECs [1]; NT or SIRT1 siRNA HUVECs, NaHS 0.1 mM, independent of VEGF but dependent on SIRT1): increased cell migration | cell migration (percentage of closed gaps) (HUVECs [1]; Scr or SIRT1 siRNA HUVECs, H2O2 150 μM 1 h, NaHS 100 μM and/or NMN 500 μM): increased cell migration in a SIRT1-dependent manner | basal OCR (HUVECs [2]): lowered the basal OCR | SIRT1 protein levels (SIRT1): increased SIRT1 protein levels | intracellular NAD^+ levels in ECs (NAD^+): raised intracellular NAD^+ levels in ECs in a dose dependent manner

OC(CNc1ccccc1)Cn1c2ccc(Br)cc2c2cc(Br)ccc21 (stereo not shown) [P7C3]
activity of NAMPT (NAMPT): enhances activity of NAMPT in vitro

Cc1cc(C)c(/C=C2\C(=O)Nc3ccccc32)[nH]1 [SU5416, reference compound]
sprouting of spheroids (HAECs; SU5416 10 μM): completely blocked sprouting

O=c1cc(-c2ccc(O)cc2)oc2cc(O)cc(O)c12 [apigenin, 5,7-dihydroxy-2-(4-hydroxyphenyl)-4H-1-benzopyran-4-one]
CD38 activity (CD38): inhibitors of CD38 activity in vitro

O=c1c(O)c(-c2ccc(O)c(O)c2)oc2cc(O)cc(O)c12 [quercetin, 2-(3,4-dihydroxyphenyl)-3,5,7-trihydroxy-4H-chromen-4-one]
CD38 activity (CD38): inhibitors of CD38 activity in vitro
